Patent US9505727B2 (THE JOHNS HOPKINS UNIVERSITY, priority 2013, dated 2016)

Columns and labels:
[1] = target: T1, hNav1.1 (Homo sapiens, UniProt P35498); assay: Two-electrode voltage-clamp of hNav1.1 (+β1) in Xenopus oocytes; assay type: cell-based; conditions: for Effect on hNav1.1 opening (G/Gmax), in words / Effect on hNav1.1 steady-state inactivation, in words / Effect on hNav1.1 persistent current / Depolarizing shift in hNav1.1 channel activation voltage: 100 μM; for Effect on hNav1.1 opening (G/Gmax), in words / Depolarizing shift in hNav1.1 channel activation voltage: versus DMSO; for Inactivation (V1/2) hNav1.1 / Activation (V1/2) hNav1.1: 100 μM drug; for Inactivation (V1/2) hNav1.1: steady-state inactivation; for Activation (V1/2) hNav1.1: ≤1% DMSO, oocytes incubated at least one hour; for Effect on hNav1.1 persistent current: end of 50 ms test pulse
T1 construct: host or cells: Xenopus oocytes (cRNA injection)

[2] = target: T2, hNav1.2 (Homo sapiens, UniProt Q99250); assay: Two-electrode voltage-clamp of hNav1.2 (+β1) in Xenopus oocytes; assay type: cell-based; conditions: for Effect on hNav1.2 opening/gating, in words: 100 μM, versus DMSO; for Inactivation (V1/2) hNav1.2 / Activation (V1/2) hNav1.2: 100 μM drug; for Inactivation (V1/2) hNav1.2: steady-state inactivation; for Activation (V1/2) hNav1.2: ≤1% DMSO
T2 construct: host or cells: Xenopus oocytes (cRNA injection)

[3] = target: T3, hNav1.3 (Homo sapiens, UniProt Q9NY46); assay: Two-electrode voltage-clamp of hNav1.3 (+β1) in Xenopus oocytes; assay type: cell-based; conditions: for Effect on hNav1.3 opening/gating, in words: 100 μM, versus DMSO; for Inactivation (V1/2) hNav1.3 / Activation (V1/2) hNav1.3: 100 μM drug; for Inactivation (V1/2) hNav1.3: steady-state inactivation; for Activation (V1/2) hNav1.3: ≤1% DMSO
T3 construct: host or cells: Xenopus oocytes (cRNA injection)

[4] = target: T4, hNav1.6 (Homo sapiens, UniProt Q9UQD0); assay: Two-electrode voltage-clamp of hNav1.6 (+β1) in Xenopus oocytes; assay type: cell-based; conditions: for Inactivation (V1/2) hNav1.6 / Activation (V1/2) hNav1.6: 100 μM drug; for Inactivation (V1/2) hNav1.6: steady-state inactivation; for Activation (V1/2) hNav1.6: ≤1% DMSO
T4 construct: host or cells: Xenopus oocytes (cRNA injection)

[5] = target: T5, α1/β2/γ2 GABAA receptor (Homo sapiens, UniProt P14867+P18507+P47870); assay: GABAA receptor activation in oocytes held at −70 mV; assay type: cell-based
T5 construct: expressed in transfected cells; host or cells: oocytes

[6] = test system: picrotoxin-induced seizures in male Crl:CF1 mice; assay: Picrotoxin seizure induction; assay type: in vivo, mouse; conditions: 75 mg/kg ip
Method: (§1) Animal husbandry and drug administration. Male Crl:CF1 mice (10-12 weeks old, Charles River) were housed under a 12 hour light-dark cycle with free access to food and water and all experiments were carried out between 10 am and 4 pm. 1-[phenyl-methyl]-1H-1,2,3-triazole-4-carboxamide-5-methyl (Compound B) (Sigma Aldrich) was suspended in a 40% solution of cyclodextrin (Sigma Aldrich) in sterile saline (0.9%) and 15 minutes prior to each seizure induction paradigm, 75 mg/kg of compound B was administered via intraperitoneal injection (ip) injection. Vehicle treated animals were similarly administrated 40% cyclodextrin and served as the controls for each experiment. The Emory University Institutional Animal Care and Use Committee approved all experimental protocols involving mice.
Seizure induction paradigms and analyses. Picrotoxin seizure induction—15 minutes prior to i.p. injection of picrotoxin (10 mg/kg, Sigma Aldrich), mice were administered vehicle or compound B (n=12 per group). Latencies to the first myoclonic jerk, forelimb clonus, and generalized tonic-clonic seizure were compared between compound B and vehicle-treated mice. The myoclonic jerk is characterized by a sudden jerk of the upper body whereas forelimb clonus involves rapid movement of the forelimbs for at least 5 s. Finally, the generalized tonic-clonic seizure involves the loss of postural control with rapid movement of the limbs for at least 5 s.
Statistical analysis. A Student's t-test was used to identify statistically significant differences in latencies between vehicle- and compound B-treated groups for each seizure phenotype following administration of flurothyl and picrotoxin. […] All data are presented as the mean±s.e.m.; p values <0.05 were considered significant.

[7] = test system: flurothyl-induced seizures in male Crl:CF1 mice; assay: Flurothyl seizure induction; assay type: in vivo, mouse; conditions: 75 mg/kg ip, p=0.6
Method: as §1
Flurothyl Seizure induction. Latencies to flurothyl-induced seizures were determined as previously described (Neurobiol Dis 49C, 211-220 (2012)). Briefly, flurothyl (2,2,2-trifluroethylether; Sigma Aldrich) was dispensed at a rate of 20 μl/minute into a Plexiglas chamber and latencies to three behavioral phenotypes were compared between vehicle-treated and compound B-treated (75 mg/kg) mice (n=12 per group): 1) the first myoclonic jerk, 2) a generalized tonic-clonic seizure, and 3) a generalized tonic-clonic seizure with tonic extension. […]

[8] = test system: 6 Hz psychomotor seizures in male Crl:CF1 mice; assay: 6 Hz psychomotor seizure induction; assay type: in vivo, mouse; conditions: 17 mA
Method: as §1
6 Hz psychomotor seizure induction. Topical anesthetic (0.5% tetracaine hydrochloride ophthalmic solution) was applied to the cornea 30 minutes before testing. Fifteen minutes prior to seizure induction, mice were administrated vehicle or compound B (n=12 per group). Each mouse was manually restrained and corneal stimulation (0.2 ms pulse, 6 Hz, 3 s) was performed at a current intensity of 17 mA (ECT Unit 57800; Ugo Basile, Comerio Italy). […]

[9] = target: Nav1.7 (Homo sapiens, UniProt Q15858); conditions: reported by other researchers; cited from earlier work
Chain of Nav1.7 (Q15858 whole entry): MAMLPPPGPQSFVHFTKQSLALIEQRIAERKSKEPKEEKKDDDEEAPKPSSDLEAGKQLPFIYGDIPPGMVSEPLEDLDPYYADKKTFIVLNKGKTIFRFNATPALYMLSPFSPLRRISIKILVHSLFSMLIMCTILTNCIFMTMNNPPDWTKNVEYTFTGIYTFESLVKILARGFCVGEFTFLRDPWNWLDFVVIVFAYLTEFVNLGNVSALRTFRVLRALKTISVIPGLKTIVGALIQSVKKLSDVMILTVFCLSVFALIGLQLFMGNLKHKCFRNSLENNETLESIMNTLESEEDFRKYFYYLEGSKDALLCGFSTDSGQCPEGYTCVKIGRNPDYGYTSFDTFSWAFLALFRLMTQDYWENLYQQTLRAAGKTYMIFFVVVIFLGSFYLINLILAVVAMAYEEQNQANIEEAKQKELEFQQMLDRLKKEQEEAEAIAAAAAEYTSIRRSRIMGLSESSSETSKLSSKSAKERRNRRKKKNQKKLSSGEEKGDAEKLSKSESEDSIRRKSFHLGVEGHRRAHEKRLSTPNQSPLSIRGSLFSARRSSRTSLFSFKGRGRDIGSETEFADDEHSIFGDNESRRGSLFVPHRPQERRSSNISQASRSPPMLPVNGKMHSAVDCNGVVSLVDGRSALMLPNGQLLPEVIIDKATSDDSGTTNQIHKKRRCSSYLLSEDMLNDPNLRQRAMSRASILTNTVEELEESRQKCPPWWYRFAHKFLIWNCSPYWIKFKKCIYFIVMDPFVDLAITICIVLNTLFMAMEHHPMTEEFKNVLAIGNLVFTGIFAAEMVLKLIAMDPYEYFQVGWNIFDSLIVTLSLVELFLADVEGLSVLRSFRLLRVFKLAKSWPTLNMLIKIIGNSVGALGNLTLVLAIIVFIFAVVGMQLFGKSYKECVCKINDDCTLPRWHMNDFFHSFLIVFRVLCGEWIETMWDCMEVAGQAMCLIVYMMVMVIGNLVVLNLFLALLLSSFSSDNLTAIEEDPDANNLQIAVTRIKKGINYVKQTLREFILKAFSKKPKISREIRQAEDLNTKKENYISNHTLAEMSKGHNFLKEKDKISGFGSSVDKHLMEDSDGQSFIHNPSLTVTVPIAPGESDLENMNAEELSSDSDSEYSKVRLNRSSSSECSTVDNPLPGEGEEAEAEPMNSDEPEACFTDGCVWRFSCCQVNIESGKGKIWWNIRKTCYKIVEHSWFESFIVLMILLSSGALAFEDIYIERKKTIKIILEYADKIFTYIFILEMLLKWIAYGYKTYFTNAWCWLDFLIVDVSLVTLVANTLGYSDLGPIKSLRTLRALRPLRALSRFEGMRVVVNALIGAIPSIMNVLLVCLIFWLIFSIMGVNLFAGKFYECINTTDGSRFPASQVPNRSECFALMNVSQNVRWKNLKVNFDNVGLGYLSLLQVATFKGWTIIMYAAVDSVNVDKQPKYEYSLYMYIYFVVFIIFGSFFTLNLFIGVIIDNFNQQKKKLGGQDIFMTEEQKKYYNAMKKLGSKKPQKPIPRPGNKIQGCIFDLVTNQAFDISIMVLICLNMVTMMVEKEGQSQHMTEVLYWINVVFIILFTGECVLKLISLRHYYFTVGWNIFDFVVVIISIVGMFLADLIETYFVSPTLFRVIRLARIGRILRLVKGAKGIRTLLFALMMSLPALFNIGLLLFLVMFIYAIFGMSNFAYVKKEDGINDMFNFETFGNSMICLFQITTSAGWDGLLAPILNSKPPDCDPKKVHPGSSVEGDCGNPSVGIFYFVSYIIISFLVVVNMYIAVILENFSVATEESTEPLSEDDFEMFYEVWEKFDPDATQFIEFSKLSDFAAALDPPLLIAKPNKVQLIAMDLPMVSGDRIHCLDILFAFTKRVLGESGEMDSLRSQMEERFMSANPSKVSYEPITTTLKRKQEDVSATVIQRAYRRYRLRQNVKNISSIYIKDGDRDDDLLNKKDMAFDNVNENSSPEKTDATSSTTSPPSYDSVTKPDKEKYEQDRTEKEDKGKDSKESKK

T5 sequence (P14867 28-456): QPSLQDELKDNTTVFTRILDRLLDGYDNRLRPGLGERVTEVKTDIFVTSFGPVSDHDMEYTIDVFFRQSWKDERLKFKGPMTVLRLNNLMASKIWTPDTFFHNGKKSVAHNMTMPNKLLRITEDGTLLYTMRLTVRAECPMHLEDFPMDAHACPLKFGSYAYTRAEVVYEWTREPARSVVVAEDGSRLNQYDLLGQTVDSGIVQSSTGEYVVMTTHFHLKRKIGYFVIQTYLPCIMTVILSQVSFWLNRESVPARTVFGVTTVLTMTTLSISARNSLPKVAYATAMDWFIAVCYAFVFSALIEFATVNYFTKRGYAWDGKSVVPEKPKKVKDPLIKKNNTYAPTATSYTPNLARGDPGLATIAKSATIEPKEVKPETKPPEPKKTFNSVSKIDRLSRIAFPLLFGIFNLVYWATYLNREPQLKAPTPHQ
T5 sequence (P47870 25-512 limits assumed): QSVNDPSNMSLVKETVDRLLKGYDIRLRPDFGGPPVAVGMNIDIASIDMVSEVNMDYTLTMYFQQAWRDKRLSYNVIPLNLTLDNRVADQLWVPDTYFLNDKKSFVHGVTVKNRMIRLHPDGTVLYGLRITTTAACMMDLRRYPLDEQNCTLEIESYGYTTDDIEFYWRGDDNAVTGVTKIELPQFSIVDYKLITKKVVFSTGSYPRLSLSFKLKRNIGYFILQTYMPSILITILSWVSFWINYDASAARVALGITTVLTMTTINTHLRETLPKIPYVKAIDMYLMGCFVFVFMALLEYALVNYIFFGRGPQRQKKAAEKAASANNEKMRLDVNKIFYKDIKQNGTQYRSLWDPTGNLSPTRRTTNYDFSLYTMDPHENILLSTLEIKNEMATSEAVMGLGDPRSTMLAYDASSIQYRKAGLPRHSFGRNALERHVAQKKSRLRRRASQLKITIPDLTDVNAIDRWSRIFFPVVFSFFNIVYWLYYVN
T5 sequence (P18507 40-475): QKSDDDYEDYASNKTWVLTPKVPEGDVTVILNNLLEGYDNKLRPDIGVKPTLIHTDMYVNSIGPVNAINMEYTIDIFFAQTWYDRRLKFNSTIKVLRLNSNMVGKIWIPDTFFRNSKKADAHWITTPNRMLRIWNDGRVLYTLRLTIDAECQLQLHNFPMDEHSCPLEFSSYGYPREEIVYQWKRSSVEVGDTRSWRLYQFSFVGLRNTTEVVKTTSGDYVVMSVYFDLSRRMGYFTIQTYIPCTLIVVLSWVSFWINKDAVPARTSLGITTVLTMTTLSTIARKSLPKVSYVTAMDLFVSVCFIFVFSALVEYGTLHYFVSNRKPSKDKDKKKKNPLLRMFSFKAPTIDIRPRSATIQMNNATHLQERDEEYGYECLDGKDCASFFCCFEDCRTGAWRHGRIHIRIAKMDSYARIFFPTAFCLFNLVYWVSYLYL

Compound	Effect on hNav1.1 opening (G/Gmax), in words [1]	Effect on hNav1.2 opening/gating, in words [2]	Effect on hNav1.3 opening/gating, in words [3]	Effect on hNav1.1 steady-state inactivation, in words [1]	Inactivation (V1/2) hNav1.1 [1]	Activation (V1/2) hNav1.1 [1]	Effect on hNav1.1 persistent current [1]	Effect on hNav1.6 opening/gating, in words ([4]; 100 μM, versus DMSO)	other results
1-[(2,6-difluorophenyl)methyl]-1H-1,2,3-triazole-carboxymethyl-5-methyl [Compound L]	only slightly inhibits	not significant	not significant						Effect on hNav1.6 steady-state inactivation, in words ([4]; 100 μM): dramatically affect
NC(=O)c1nnn(Cc2cccc(F)c2)c1N [Compound A, 1-[(3-fluorophenyl)methyl]-1H-1,2,3-Triazole-4-carboxamide-5-amine]	clearly inhibit			neither of these compounds influences	−50.5 ± 1.2 mV^	−30.8 ± 1.0 mV**	neither of these compounds influences		
Cc1c(C(N)=O)nnn1Cc1ccccc1 [Compound B, 1-[phenyl-methyl]-1H-1,2,3-Triazole-4-carboxamide-5-methyl]	clearly inhibit	unaltered	unaltered	neither of these compounds influences	−49.4 ± 0.3 mV^	−27.4 ± 1.0 mV**	neither of these compounds influences	unaltered	Effect on hNav1.1 persistent current ([1]; listed as compound B): do not affect; Depolarizing shift in hNav1.1 channel activation voltage [1]: ~+11 mV; Inactivation (V1/2) hNav1.2 [2]: −53.6 ± 1.2 mV; Activation (V1/2) hNav1.2 [2]: −23.6 ± 1.1 mV; Inactivation (V1/2) hNav1.3 [3]: −50.0 ± 0.8 mV; Activation (V1/2) hNav1.3 [3]: −25.8 ± 1.4 mV; Inactivation (V1/2) hNav1.6 [4]: −62.6 ± 0.7 mV; Activation (V1/2) hNav1.6 [4]: −23.8 ± 1.9 mV; Activation of α1/β2/γ2 GABAA receptor ([5]; 100 μM): do not activate; Frequency of behavioral seizures versus vehicle, picrotoxin [6]: no difference; Average latency to forelimb clonus (FC) versus vehicle, picrotoxin ([6]; p=0.3): no statistically significant differences; Average latency to first myoclonic jerk (MJ) versus vehicle, picrotoxin ([6]; p=0.4): no statistically significant differences; Average latency to MJ versus vehicle, flurothyl [7]: comparable; Seizure severity (modified Racine scale) versus vehicle, 6 Hz ([8]; 75 mg/kg ip): dramatically less severe; Reduction in the number of mice exhibiting seizures, 6 Hz ([8]; versus vehicle): 63%
OCc1cn(Cc2cccc(F)c2)nn1 [Compound C, 1-[(3-fluorophenyl)methyl]-1H-1,2,3-Triazole-4-hydroxymethyl]	no longer affects				−49.2 ± 0.6 mV	−38.4 ± 1.3 mV			
NC(=O)c1nnn(Cc2ccc(F)cc2)c1N [Compound D, 1-[(4-fluorophenyl)methyl]-1H-1,2,3-Triazole-4-carboxamide-5-amine]	not significant				−49.8 ± 1.6 mV	−32.5 ± 2.3 mV			
CCc1c(C(N)=O)nnn1Cc1ccccc1 [Compound F, 1-(phenylmethyl)-1H-1,2,3-triazole-4-carboxamide-5-ethyl]	inhibits hNav1.1 opening	not significant	not significant	does not influence			does not influence	not significant	Depolarizing shift in hNav1.1 channel activation voltage [1]: ~+12 mV
COC(=O)c1nnn(Cc2c(F)cccc2F)c1C [Compound L, 1-[(2,6-difluorophenyl)methyl]-1H-1,2,3-triazole-carboxymethyl-5-methyl]	much smaller compared to compound B								Shift of hNav1.6 steady-state inactivation / channel availability midpoint ([4]; 100 μM, versus DMSO): ~−20 mV
NC(=O)c1cn(Cc2c(F)cccc2F)nn1 [Rufinamide, 1-[(2,6-difluorophenyl)methyl]-1H-1,2,3-Triazole-4-carboxamide, reference compound]	dramatic depolarizing shift	not inhibited	not inhibited	not influenced	−47.8 ± 1.6 mV	−30.6 ± 0.9 mV**	do not affect	not inhibited	Inactivation (V1/2) hNav1.2 [2]: −57.7 ± 0.5 mV; Activation (V1/2) hNav1.2 [2]: −29.5 ± 1.2 mV; Inactivation (V1/2) hNav1.3 [3]: −52.6 ± 1.6 mV; Activation (V1/2) hNav1.3 [3]: −24.5 ± 2.4 mV; Inactivation (V1/2) hNav1.6 [4]: −60.0 ± 0.7 mV**; Activation (V1/2) hNav1.6 [4]: −28.1 ± 0.8 mV; Activation of α1/β2/γ2 GABAA receptor ([5]; 100 μM): do not activate; Effect on Nav1.7 inactivated state [9]: stabilizes the inactivated state
NCc1cc(=O)[nH]o1 [muscimol]									Activation of α1/β2/γ2 GABAA receptor ([5]; 5 μM): activates
